The results in this text go back to publication PMC5218480 (PLoS ONE, 2017).

The experiment deals with MV-4-11 cells. Description: Gene expression microarray analysis (Affymetrix PrimeView) and GSEA. The class given is cell-based, human. Set-up: RFU PODN (11730768_x_at) / Fold change /veh PODN (11730768_x_at) / RFU LINC00158 (11744669_a_at) / Fold change /veh LINC00158 (11744669_a_at) / RFU DUSP10 (11751237_a_at) / Fold change /veh DUSP10 (11751237_a_at) / RFU ID3 (11757404_x_at) / Fold change /veh ID3 (11757404_x_at) / RFU PLEKHG5 (11737974_s_at) / Fold change /veh PLEKHG5 (11737974_s_at) / RFU LRRC4B (11730491_at) / Fold change /veh LRRC4B (11730491_at) / RFU GIMAP4 (11747438_a_at) / Fold change /veh GIMAP4 (11747438_a_at) / RFU KRT8 (11758183_x_at) / Fold change /veh KRT8 (11758183_x_at) / RFU CNN1 (11734310_a_at) / Fold change /veh CNN1 (11734310_a_at) / RFU VPS37D (11726825_at) / Fold change /veh VPS37D (11726825_at) / RFU C10orf10 (11716522_x_at) / Fold change /veh C10orf10 (11716522_x_at) / RFU KIR2DL2 /// KIR2DL4 /// KIR2DL5A /// KIR2DL5B /// KIR2DS1 /// KIR2DS2 /// KIR2DS3 /// KIR2DS4 /// KIR3DL3 /// KIR3DL3 /// KIR3DS1 (11738374_at) / Fold change /veh KIR2DL2 /// KIR2DL4 /// KIR2DL5A /// KIR2DL5B /// KIR2DS1 /// KIR2DS2 /// KIR2DS3 /// KIR2DS4 /// KIR3DL3 /// KIR3DL3 /// KIR3DS1 (11738374_at) / RFU C1QL1 (11718748_at) / Fold change /veh C1QL1 (11718748_at) / RFU TMPRSS4 (11747572_a_at) / Fold change /veh TMPRSS4 (11747572_a_at) / RFU HAMP (11756126_x_at) / Fold change /veh HAMP (11756126_x_at) / RFU RNFT2 (11725882_a_at) / Fold change /veh RNFT2 (11725882_a_at) / RFU NR4A2 (11747474_a_at) / Fold change /veh NR4A2 (11747474_a_at) / RFU ABCC12 (11746883_a_at) / Fold change /veh ABCC12 (11746883_a_at) / RFU TMEM136 (11760407_x_at) / Fold change /veh TMEM136 (11760407_x_at) / RFU CLDN22 /// WWC2 (11732394_at) / Fold change /veh CLDN22 /// WWC2 (11732394_at) / RFU HLA-DPB1 (11760878_x_at) / Fold change /veh HLA-DPB1 (11760878_x_at) / RFU SPINT1 (11716480_a_at) / Fold change /veh SPINT1 (11716480_a_at) / RFU GAP43 (11754022_s_at) / Fold change /veh GAP43 (11754022_s_at) / RFU A4GNT (11735810_at) / Fold change /veh A4GNT (11735810_at) / RFU PRB3 (11715151_x_at) / Fold change /veh PRB3 (11715151_x_at) / RFU TUBB4B (11761932_at) / Fold change /veh TUBB4B (11761932_at) / RFU CAPN14 (11732068_a_at) / Fold change /veh CAPN14 (11732068_a_at) / RFU TMCC2 (11721928_a_at) / Fold change /veh TMCC2 (11721928_a_at) / RFU IRGQ (11745062_a_at) / Fold change /veh IRGQ (11745062_a_at) / RFU FAM174B (11720279_a_at) / Fold change /veh FAM174B (11720279_a_at) / RFU TMPRSS4 (11748680_a_at) / Fold change /veh TMPRSS4 (11748680_a_at) / RFU FAM212B (11763350_a_at) / Fold change /veh FAM212B (11763350_a_at) / RFU PLEKHG5 (11743358_a_at) / Fold change /veh PLEKHG5 (11743358_a_at) / RFU ZSCAN30 (11745921_a_at) / Fold change /veh ZSCAN30 (11745921_a_at) / RFU CMKLR1 (11741424_a_at) / Fold change /veh CMKLR1 (11741424_a_at) / RFU LOC101060620 /// MAPK8IP1 (11723275_at) / Fold change /veh LOC101060620 /// MAPK8IP1 (11723275_at) / RFU SPTSSB (11747773_x_at) / Fold change /veh SPTSSB (11747773_x_at) / RFU PRSS12 (11739890_at) / Fold change /veh PRSS12 (11739890_at) / RFU BIN1 (11741810_x_at) / Fold change /veh BIN1 (11741810_x_at) / RFU WNT11 (11732464_a_at) / Fold change /veh WNT11 (11732464_a_at) / RFU C10orf10 (11716521_a_at) / Fold change /veh C10orf10 (11716521_a_at) / RFU C5orf56 (11738089_at) / Fold change /veh C5orf56 (11738089_at) / RFU CYB561 (11721691_x_at) / Fold change /veh CYB561 (11721691_x_at) / RFU ANKRD19P (11752326_a_at) / Fold change /veh ANKRD19P (11752326_a_at) / RFU OR2T12 /// OR2T33 /// OR2T8 (11738714_s_at) / Fold change /veh OR2T12 /// OR2T33 /// OR2T8 (11738714_s_at) / RFU VCAN (11748164_a_at) / Fold change /veh VCAN (11748164_a_at) / RFU JSRP1 (11732532_at) / Fold change /veh JSRP1 (11732532_at) / RFU KRTAP10-11 (11738290_x_at) / Fold change /veh KRTAP10-11 (11738290_x_at) / RFU MYO3A (11730013_a_at) / Fold change /veh MYO3A (11730013_a_at) / RFU EBF3 (11725865_a_at) / Fold change /veh EBF3 (11725865_a_at) / RFU CAMK2N1 (11719241_x_at) / Fold change /veh CAMK2N1 (11719241_x_at) / RFU C5orf56 (11738088_a_at) / Fold change /veh C5orf56 (11738088_a_at) / RFU OLFML3 (11715873_a_at) / Fold change /veh OLFML3 (11715873_a_at) / RFU LOC100653217 /// NTM (11731650_a_at) / Fold change /veh LOC100653217 /// NTM (11731650_a_at) / RFU MAPK11 (11762145_a_at) / Fold change /veh MAPK11 (11762145_a_at) / RFU FIZ1 (11724087_x_at) / Fold change /veh FIZ1 (11724087_x_at) / RFU OASL (11726364_x_at) / Fold change /veh OASL (11726364_x_at) / RFU SOX15 (11748057_x_at) / Fold change /veh SOX15 (11748057_x_at) / RFU CD79A (11719716_a_at) / Fold change /veh CD79A (11719716_a_at) / RFU HIST1H1D (11736915_at) / Fold change /veh HIST1H1D (11736915_at) / RFU CASKIN2 (11723855_a_at) / Fold change /veh CASKIN2 (11723855_a_at) / RFU LOC730098 (11760151_x_at) / Fold change /veh LOC730098 (11760151_x_at) / RFU OR4N2 (11742367_at) / Fold change /veh OR4N2 (11742367_at) / RFU PRRT2 (11749266_a_at) / Fold change /veh PRRT2 (11749266_a_at) / RFU SNX32 (11753110_a_at) / Fold change /veh SNX32 (11753110_a_at) / RFU CDHR5 (11726645_a_at) / Fold change /veh CDHR5 (11726645_a_at) / RFU RCAN1 (11760418_a_at) / Fold change /veh RCAN1 (11760418_a_at) / RFU FAM167A (11723789_a_at) / Fold change /veh FAM167A (11723789_a_at) / RFU FAM26E (11764081_at) / Fold change /veh FAM26E (11764081_at) / RFU ISYNA1 (11749810_s_at) / Fold change /veh ISYNA1 (11749810_s_at) / RFU ACY1 (11761880_at) / Fold change /veh ACY1 (11761880_at) / RFU 11764098_at / Fold change /veh 11764098_at / RFU SAMD14 (11745864_x_at) / Fold change /veh SAMD14 (11745864_x_at) / RFU NPB (11741838_a_at) / Fold change /veh NPB (11741838_a_at) / RFU TMPRSS6 (11731388_a_at) / Fold change /veh TMPRSS6 (11731388_a_at) / RFU KRTAP10-2 (11738614_at) / Fold change /veh KRTAP10-2 (11738614_at) / RFU ARHGAP8 /// PRR5-ARHGAP8 (11727945_x_at) / Fold change /veh ARHGAP8 /// PRR5-ARHGAP8 (11727945_x_at) / RFU KRTAP5-7 /// NADSYN1 (11734609_at) / Fold change /veh KRTAP5-7 /// NADSYN1 (11734609_at) / RFU RASL12 (11751679_a_at) / Fold change /veh RASL12 (11751679_a_at) / RFU CDKN2B (11736163_a_at) / Fold change /veh CDKN2B (11736163_a_at) / RFU PRF1 (11729649_at) / Fold change /veh PRF1 (11729649_at) / RFU, ZNF638 /// ZNF638-IT1 / Fold change vs veh, ZNF638 /// ZNF638-IT1 / RFU, PANK3 / Fold change vs veh, PANK3 / RFU, SH3YL1 / Fold change vs veh, SH3YL1 / RFU, ZEB2 / Fold change vs veh, ZEB2 / RFU, NRIP1 / Fold change vs veh, NRIP1 / RFU, PTTG1IP / Fold change vs veh, PTTG1IP / RFU, CAPN2 / Fold change vs veh, CAPN2 / RFU, MED14 / Fold change vs veh, MED14 / RFU, SNORA58 / Fold change vs veh, SNORA58 / RFU, C1orf63 / Fold change vs veh, C1orf63 / RFU, LRRFIP1 / Fold change vs veh, LRRFIP1 / RFU, NDUFAF7 / Fold change vs veh, NDUFAF7 / RFU, SLC12A2 / Fold change vs veh, SLC12A2 / RFU, IBTK / Fold change vs veh, IBTK / RFU, ESF1 / Fold change vs veh, ESF1 / Fold change vs veh, TMEM50B / RFU, TAOK1 / Fold change vs veh, TAOK1 / RFU, ACBD3 / Fold change vs veh, ACBD3 / RFU, TMA16 / Fold change vs veh, TMA16 / RFU, RWDD3 / Fold change vs veh, RWDD3 / RFU, BCAT1 / Fold change vs veh, BCAT1 / RFU, EDEM3 / Fold change vs veh, EDEM3 / RFU, TMEM33 / Fold change vs veh, TMEM33 / RFU, WDR75 / Fold change vs veh, WDR75 / RFU, AHCTF1 / Fold change vs veh, AHCTF1 / RFU, TFRC / Fold change vs veh, TFRC / RFU, ZDHHC17 / Fold change vs veh, ZDHHC17 / RFU, NOM1 / Fold change vs veh, NOM1 / RFU, ARL8B / Fold change vs veh, ARL8B / RFU, ZBTB11 / Fold change vs veh, ZBTB11 / RFU, TAMM41 / Fold change vs veh, TAMM41 / RFU, KIAA1704 /// LOC100996395 / Fold change vs veh, KIAA1704 /// LOC100996395 / RFU, ING1 / Fold change vs veh, ING1 / RFU, TRMT61B / Fold change vs veh, TRMT61B / RFU, FUBP3 / Fold change vs veh, FUBP3 / RFU, TP53 / Fold change vs veh, TP53 / RFU, TNKS2 / Fold change vs veh, TNKS2 / RFU, ZFP14 / Fold change vs veh, ZFP14 / RFU, ACTR2 / Fold change vs veh, ACTR2 / RFU, PPP3R1 / Fold change vs veh, PPP3R1 / RFU, PIK3R1 / Fold change vs veh, PIK3R1 / RFU, HNRNPA1 / Fold change vs veh, HNRNPA1 / RFU, RNF170 / Fold change vs veh, RNF170 / RFU, ZNF28 / Fold change vs veh, ZNF28 / RFU, RNGTT / Fold change vs veh, RNGTT / RFU, OGT / Fold change vs veh, OGT / RFU, BRD1 / Fold change vs veh, BRD1 / RFU, MARS / Fold change vs veh, MARS / RFU, ZNF655 / Fold change vs veh, ZNF655 / RFU, FAHD1 / Fold change vs veh, FAHD1 / RFU, BDP1 / Fold change vs veh, BDP1 / RFU, LRRCC1 / Fold change vs veh, LRRCC1 / RFU, ARID1A / Fold change vs veh, ARID1A / RFU, ZNF146 / Fold change vs veh, ZNF146 / RFU, ZNF330 / Fold change vs veh, ZNF330 / RFU, GPN3 / Fold change vs veh, GPN3 / RFU, C9orf123 / Fold change vs veh, C9orf123 / RFU, N4BP2L2 / Fold change vs veh, N4BP2L2 / RFU, ARFIP1 / Fold change vs veh, ARFIP1 / RFU, FAM179B / Fold change vs veh, FAM179B / RFU, BCL10 / Fold change vs veh, BCL10 / RFU, UHRF1BP1L / Fold change vs veh, UHRF1BP1L / RFU, BET1 / Fold change vs veh, BET1 / RFU, CNOT2 / Fold change vs veh, CNOT2 / RFU, ZNF268 / Fold change vs veh, ZNF268 / Fold change vs veh, ZNF507 / RFU, DGCR2 / Fold change vs veh, DGCR2 / RFU, WDSUB1 / Fold change vs veh, WDSUB1 / Fold change vs veh, HSP90B1 /// MIR3652 / RFU, ADSS / Fold change vs veh, ADSS / RFU, GK / Fold change vs veh, GK / RFU, ZNF148 / Fold change vs veh, ZNF148 / RFU, TAF9 / Fold change vs veh, TAF9 / RFU, SLC1A5 / Fold change vs veh, SLC1A5 / RFU, SLMO2 / Fold change vs veh, SLMO2 / RFU, ABCC4 / Fold change vs veh, ABCC4 / RFU, LOC101060439 /// RAP1B / Fold change vs veh, LOC101060439 /// RAP1B / RFU, RFX7 / Fold change vs veh, RFX7 / RFU, GTPBP10 / Fold change vs veh, GTPBP10 / RFU, CNEP1R1 / Fold change vs veh, CNEP1R1 / RFU, BIVM-ERCC5 /// ERCC5 / Fold change vs veh, BIVM-ERCC5 /// ERCC5 / RFU, ILF3 / Fold change vs veh, ILF3 / RFU 11762660_at / Fold change /veh 11762660_at / RFU VCAN (11757783_s_at) / Fold change /veh VCAN (11757783_s_at) / RFU DDX43 (11728927_at) / Fold change /veh DDX43 (11728927_at) / RFU KRT8 (11758188_x_at) / Fold change /veh KRT8 (11758188_x_at) / RFU NKD1 (11759106_at) / Fold change /veh NKD1 (11759106_at) / RFU SRD5A1 (11742802_a_at) / Fold change /veh SRD5A1 (11742802_a_at) / RFU TPSAB1 /// TPSB2 (11721975_s_at) / Fold change /veh TPSAB1 /// TPSB2 (11721975_s_at) / RFU GSTM3 (11746129_a_at) / Fold change /veh GSTM3 (11746129_a_at) / RFU IL23R (11737362_x_at) / Fold change /veh IL23R (11737362_x_at) / RFU TMEM51 (11727254_a_at) / Fold change /veh TMEM51 (11727254_a_at) / RFU PIWIL2 (11732686_x_at) / Fold change /veh PIWIL2 (11732686_x_at) / RFU ORM1 (11744905_x_at) / Fold change /veh ORM1 (11744905_x_at) / RFU CCDC152 (11743942_at) / Fold change /veh CCDC152 (11743942_at) / RFU ECM1 (11717891_a_at) / Fold change /veh ECM1 (11717891_a_at) / RFU IL23R (11748794_a_at) / Fold change /veh IL23R (11748794_a_at) / RFU TNFAIP8L3 (11732012_x_at) / Fold change /veh TNFAIP8L3 (11732012_x_at) / RFU MBOAT4 (11741988_at) / Fold change /veh MBOAT4 (11741988_at) / RFU 11764193_at / Fold change /veh 11764193_at / RFU TMEM53 (11763286_at) / Fold change /veh TMEM53 (11763286_at) / RFU MAGEB2 (11727129_at) / Fold change /veh MAGEB2 (11727129_at) / RFU TMEM200A (11744735_a_at) / Fold change /veh TMEM200A (11744735_a_at) / RFU CCDC152 (11751479_a_at) / Fold change /veh CCDC152 (11751479_a_at) / RFU FAM211A (11726209_a_at) / Fold change /veh FAM211A (11726209_a_at) / RFU RGS16 (11746705_a_at) / Fold change /veh RGS16 (11746705_a_at) / RFU VCAN (11755009_s_at) / Fold change /veh VCAN (11755009_s_at) / RFU RHOB (11743442_s_at) / Fold change /veh RHOB (11743442_s_at) / RFU RGS16 (11720943_a_at) / Fold change /veh RGS16 (11720943_a_at) / RFU RGS16 (11720944_at) / Fold change /veh RGS16 (11720944_at) / RFU, VPS4B / Fold change vs veh, VPS4B / RFU, CREB1 / Fold change vs veh, CREB1 / RFU, DNAJC13 / Fold change vs veh, DNAJC13 / RFU, GNAQ / Fold change vs veh, GNAQ / RFU, CDK5R1 / Fold change vs veh, CDK5R1 / RFU, ZRANB3 / Fold change vs veh, ZRANB3 / RFU, CUL4A / Fold change vs veh, CUL4A / RFU, CCNY / Fold change vs veh, CCNY / RFU, UFL1 / Fold change vs veh, UFL1 / RFU, COG3 / Fold change vs veh, COG3 / RFU, DIAPH2 / Fold change vs veh, DIAPH2 / RFU, SKA2 / Fold change vs veh, SKA2 / RFU, AFF3 / Fold change vs veh, AFF3 / RFU, LMF1 / Fold change vs veh, LMF1 / RFU, IPO11 / Fold change vs veh, IPO11 / RFU, DFFB / Fold change vs veh, DFFB / RFU, FOXP1 / Fold change vs veh, FOXP1 / RFU, CARD8 / Fold change vs veh, CARD8 / RFU, STRN3 / Fold change vs veh, STRN3 / RFU, ADK / Fold change vs veh, ADK / RFU, RASSF2 / Fold change vs veh, RASSF2 / RFU, WIPF1 / Fold change vs veh, WIPF1 / RFU, LARP1B / Fold change vs veh, LARP1B / RFU, RASA1 / Fold change vs veh, RASA1 / RFU, RB1 / Fold change vs veh, RB1 / RFU, PPFIA1 / Fold change vs veh, PPFIA1 / RFU, MAT2A / Fold change vs veh, MAT2A / RFU, CCT5 / Fold change vs veh, CCT5 / RFU, WDR92 / Fold change vs veh, WDR92 / RFU, CUX1 / Fold change vs veh, CUX1 / RFU, TTC7A / Fold change vs veh, TTC7A / RFU, TMEM135 / Fold change vs veh, TMEM135 / RFU, DEPTOR / Fold change vs veh, DEPTOR / RFU, CPM / Fold change vs veh, CPM / RFU, DNAJB6 / Fold change vs veh, DNAJB6 / RFU, CACNA2D3 / Fold change vs veh, CACNA2D3 / RFU, DTX4 / Fold change vs veh, DTX4 / RFU, TFCP2 / Fold change vs veh, TFCP2 / RFU, GMCL1 /// GMCL1P1 / Fold change vs veh, GMCL1 /// GMCL1P1 / RFU, AEBP2 / Fold change vs veh, AEBP2 / RFU, SNHG1 /// SNORD22 /// SNORD25 /// SNORD26 /// SNORD27 /// SNORD28 /// SNORD29 /// SNORD31 / Fold change vs veh, SNHG1 /// SNORD22 /// SNORD25 /// SNORD26 /// SNORD27 /// SNORD28 /// SNORD29 /// SNORD31 / Fold change (Aza/veh), C12orf56 (ProbeSet 11735607_a_at) / Fold change (ACY-1035/veh), C12orf56 (ProbeSet 11735607_a_at) / Fold change (Aza/veh), FGFR1OP (ProbeSet 11751329_s_at) / Fold change (ACY-1035/veh), FGFR1OP (ProbeSet 11751329_s_at) / Fold change (Aza/veh), VPS36 (ProbeSet 11739960_a_at) / Fold change (ACY-1035/veh), VPS36 (ProbeSet 11739960_a_at) / RFU SYPL1 (11715823_x_at) / Fold change /veh SYPL1 (11715823_x_at) / RFU IGFBP7 (11715501_s_at) / Fold change /veh IGFBP7 (11715501_s_at) / RFU REEP3 (11722064_at) / Fold change /veh REEP3 (11722064_at) / RFU IGLL1 (11728026_x_at) / Fold change /veh IGLL1 (11728026_x_at): dose or concentration left out as unconfirmed. The following applies: MV-4-11 cells, 48 hours.

Each structure is given as a SMILES string.

Take `Nc1ncn([C@@H]2O[C@H](CO)[C@@H](O)[C@H]2O)c(=O)n1` [azacitidine]: the “RFU CAPN14 (11732068_a_at)” value came to 10.94 RFU.
